Columns and labels:
Format in all cases: in vivo
Set-up in all cases: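 grade 0 to 5 of growth suppression where 5 is 90% or more and 0 below 10%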
[1] = test system: Echinochloa oryzicola Vasing; test: Herbicidal effects in paddy field soil treatment (Test Example 1); conditions: paddy field soil treatment; 1000 g of the active ingredient per hectare; wettable powder added dropwise on water surface; 21st day after treatment
Method in brief: (§1)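 Flooded-paddy soil treatment under greenhouse conditions: a diluted wettable powder at 1000 g a.i./ha went onto the water surface one day post-sowing, with 3 cm standing water, and weed control was graded on a scoring scale 21 days after treatment.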

[2] = test system: Monochoria vaginalis (Burm. f.) Presl var. plantaginea (Roxb.) Solms-Laub.; test: as above; conditions: paddy field soil treatment; 1000 g of the active ingredient per hectare; wettable powder added dropwise on water surface; 21st day after treatment
Method in brief: as §1

[3] = test system: Scirpus juncoides Roxb. var. ohwianus. T. Koyama; test: as above; conditions: paddy field soil treatment; 1000 g of the active ingredient per hectare; wettable powder added dropwise on water surface; 21st day after treatment
Method in brief: as §1

[4] = test system: Abutilon theophrasti medicus; test: Herbicidal effects in upland field soil treatment (Test Example 2); conditions: 1000 g active ingredient per hectare, 21st day after treatment, criteria of Table 138
Method in brief: (§2)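 Soil-applied before emergence at 1000 g a.i./ha as water-diluted wettable powder; greenhouse-grown plants rated for herbicidal damage 21 days post-treatment.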

Amaranthus viridis L. [5] = test: as above; conditions: 1000 g active ingredient per hectare, 21st day after treatment, criteria of Table 138
Method in brief: as §2

[6] = test system: Abutilon theophrasti medicus; test: Herbicidal effects in upland field foliar treatment (Test Example 3); conditions: criteria of Table 138; for herbicidal effect (index) on Abutilon theophrasti medicus: 1000 g active ingredient per hectare, 14th day after treatment; for herbicidal effects on Abutilon theophrasti medicus: 1000 g of the active ingredient per hectare, 14th day after the treatment, wettable powder
Experimental: (§3) Test Example 3 Test on Herbicidal Effects in Upland Field Foliar Treatment A 80-cm^2 plastic pot was filled with upland field soil. Seeds of Echinochloa crus-galli (L.) P. Beauv. var. crus-galli, Abutilon theophrasti medicus and Amaranthus viridis L. were sowed, and the plants were grown for two weeks in a greenhouse. A wettable powder formulation prepared according to Preparation Example 1 was diluted with water, and was sprayed with a small sprayer to perform foliar application over the entirety of plants from the upper side, in an amount equivalent to 1000 liters per hectare, such that 1000 g of the active ingredient per hectare was applied. Thereafter, the plants were grown in a greenhouse, and on the 14th day after the treatment, the herbicidal effects were investigated according to the criteria described in the Table 138 shown above.

Amaranthus viridis L. [7] = test: as above; conditions: criteria of Table 138; for herbicidal effect (index) on Amaranthus viridis L.: 1000 g active ingredient per hectare, 14th day after treatment; for herbicidal effects on Amaranthus viridis L.: 1000 g of the active ingredient per hectare, 14th day after the treatment, wettable powder
Experimental: as §3

[8] = test system: Echinochloa crus-galli (L.) P. Beauv. var. crus-galli; test: as above; conditions: criteria of Table 138; for herbicidal effect (index) on Echinochloa crus-galli (L.) P. Beauv. var. crus-galli: 1000 g active ingredient per hectare, 14th day after treatment; for herbicidal effects on Echinochloa crus-galli (L.) P. Beauv. var. crus-galli: 1000 g of the active ingredient per hectare, 14th day after the treatment, wettable powder
Experimental: as §3

Structure (SMILES) | Herbicidal effects index, Echinochloa oryzicola Vasing [1] | Herbicidal effects index, Monochoria vaginalis (Burm. f.) Presl var. plantaginea (Roxb.) Solms-Laub. [2] | Herbicidal effects index, Scirpus juncoides Roxb. var. ohwianus. T. Koyama [3] | herbicidal effect (index) on Abutilon theophrasti medicus [4] | herbicidal effect (index) on Amaranthus viridis L. (Amaranthus viridis L. [5]) | herbicidal effect (index) on Abutilon theophrasti medicus [6] | herbicidal effect (index) on Amaranthus viridis L. (Amaranthus viridis L. [7]) | herbicidal effect (index) on Echinochloa crus-galli (L.) P. Beauv. var. crus-galli [8] | herbicidal effects on Abutilon theophrasti medicus [6] | herbicidal effects on Amaranthus viridis L. (Amaranthus viridis L. [7]) | herbicidal effects on Echinochloa crus-galli (L.) P. Beauv. var. crus-galli [8]
O=C1CCCC(O)=C1C(=O)c1nc2ccccc2n(-c2ccc(Cl)cn2)c1=O [I-177] | 5 | 5 | 5 | 5 | 5 | 5 | 5 | 5 | – | – | –
COc1ccc(-n2c(=O)c(C(=O)C3=C(O)CCCC3=O)nc3cc(F)c(OC)cc32)cc1 [II-263] | 5 | 5 | 5 | 4 | 5 | – | – | – | 4 | 5 | 5
O=C1CCCC(O)=C1C(=O)c1nc2ccccc2n(-c2cccc3ccccc23)c1=O [I-263] | 5 | 5 | 5 | 5 | 5 | 5 | 5 | 5 | – | – | –
Cn1c(=O)c(C(=O)C2=C(O)CCCC2=O)nc2ccc(Cl)cc21 [I-227] | 5 | 5 | 5 | 5 | 5 | 5 | 5 | 4 | – | – | –
O=C1CCCC(O)=C1C(=O)c1nc2ccccc2n(-c2ccc3c(c2)CCC3)c1=O [II-222] | 5 | 5 | 5 | 5 | 5 | – | – | – | 5 | 5 | 5
CCc1cccc(-n2c(=O)c(C(=O)C3=C(O)CCCC3=O)nc3ccccc32)c1 [II-23] | 5 | 5 | 5 | 5 | 5 | – | – | – | 5 | 5 | 5
O=C1CCCC(O)=C1C(=O)c1nc2ccccc2n(C2CCCC2)c1=O [I-21] | – | – | – | 5 | 5 | 5 | 5 | 5 | – | – | –
Cn1c(=O)c(C(=O)C2=C(O)C3CCC(C3)C2=O)nc2ccccc21 (stereo not shown) [I-5] | – | – | – | 5 | 5 | 5 | 5 | 4 | – | – | –
O=C1CCCC(O)=C1C(=O)c1nc2ccccc2n(C2CCS(=O)(=O)C2)c1=O (stereo not shown) [I-137] | 5 | 5 | 5 | – | – | 5 | 5 | 4 | – | – | –
O=C1CCCC(O)=C1C(=O)c1nc2ccccc2n(-c2ccc(OCC3CCCO3)cc2)c1=O (stereo not shown) [II-116] | 5 | 5 | 5 | – | – | – | – | – | 4 | 5 | 4
COc1cccc2nc(C(=O)C3=C(O)CCCC3=O)c(=O)n(-c3ccccc3)c12 [II-256] | 5 | 5 | 5 | – | – | – | – | – | 4 | 5 | 5
COc1cc(-n2c(=O)c(C(=O)C3=C(O)CCCC3=O)nc3c(F)cccc32)cc(OC)c1OC [II-234] | – | – | – | 5 | 5 | – | – | – | 5 | 5 | 4
COc1ccc(-n2c(=O)c(C(=O)C3=C(O)CCCC3=O)nc3cccc(OC)c32)cc1 [II-257] | 5 | 5 | 5 | – | – | – | – | – | 4 | 5 | 5
CSCn1c(=O)c(C(=O)C2=C(O)C3CCC(C3)C2=O)nc2ccccc21 (stereo not shown) [I-71] | – | – | – | 5 | 5 | 5 | 5 | 5 | – | – | –
O=C1CCCC(O)=C1C(=O)c1nc2ccccc2n(-c2ncccn2)c1=O [I-195] | – | – | – | 5 | 5 | 5 | 5 | 5 | – | – | –
C[S+]([O-])CCOCn1c(=O)c(C(=O)C2=C(O)CCCC2=O)nc2ccccc21 (stereo not shown) [I-67] | 4 | 5 | 5 | – | – | 5 | 5 | 4 | – | – | –
CS(=O)(=O)c1cccc(-n2c(=O)c(C(=O)C3=C(O)CCCC3=O)nc3ccccc32)c1 [II-124] | 4 | 5 | 5 | – | – | – | – | – | 4 | 5 | 5
COc1ccc(-n2c(=O)c(C(=O)C3=C(O)CCCC3=O)nc3ccccc32)cc1F [II-178] | 4 | 5 | 5 | – | – | – | – | – | 5 | 5 | 5
Cc1cc(-n2c(=O)c(C(=O)C3=C(O)CCCC3=O)nc3ccccc32)ccc1F [II-214] | 5 | 5 | 5 | – | – | – | – | – | 5 | 5 | 5
CCCOc1cccc(-n2c(=O)c(C(=O)C3=C(O)CCCC3=O)nc3ccccc32)c1 [II-71] | 4 | 5 | 5 | – | – | – | – | – | 5 | 5 | 4

From patent US8389523B2, “Substituted quinoxaline and an agrochemical composition thereof” (Kumiai Chemical Industry Co., Ltd., priority 2007, dated 2013)
